Experimental data taken from article PMC8350397, “GSK137, a potent small-molecule BCL6 inhibitor with in vivo activity, suppresses antibody responses in mice” (The Journal of Biological Chemistry, 2021).
Entries after “also recorded” stand apart in the source; their conditions may differ.

How the values were obtained:
Type in all cases: cell-based
[1] = system: Farage, Karpas422 and VAL cells; assay: Viability and cumulative cell number analysis, Farage, Karpas422, VAL; details: 14 days
Description: Farage cells were cultured in RPMI1640 (1×) + 20% heat-inactivated fetal bovine serum (FBS), ULA in Iscove's modified Dulbecco's medium + 20% FBS, whereas Karpas422 and VAL were cultured in RPMI1640 + 20% heat-inactivated FBS, all with the addition of 1% Glutamax and 1% sodium pyruvate.
Farage, ULA, Karpas422, and VAL cells were seeded into T25 tissue culture flasks in a total volume of 7 mL per flask at densities of 5 x10^4, 7 x10^4, 5 x10^4, and 4 x10^4 cells/mL, respectively and incubated overnight at 37 °C and 5% CO2. Cells were then treated with a 3-point titration of GSK137 (0.1 µM, 1 µM, and 10 µM) throughout a 14-day time course. Treatments with multiple concentrations of BI3802 were also included for comparison (Farage and Karpas422 cells were treated with 0.01 µM, 0.1 µM, and 1 µM BI3802; ULA cells were treated with 0.1 µM and 1 µM BI3802; VAL cells were treated with 0.1 µM, 1 µM, and 10 µM BI3802). Viability (trypan blue exlcusion) and cumulative cell number were measured on a Vi-CELL XR 2.03 (Beckman Coulter, Brea, CA, USA) on day of seeding and on days 3, 6, 10, and 14.

[2] = target: T1, BCL6 in Farage DLBCL cells (Homo sapiens, UniProt P41182); assay: Western blot for BCL6 protein degradation; details: 1 μM for 24 h
T1 construct: endogenous in cells; host or cells: Farage DLBCL cells
Description: Cell pellets were lysed in RIPA buffer containing protease/phosphatase inhibitor cocktail and benzonase, protein concentration determined and samples prepared in reducing conditions and 20 µg of protein loaded per lane. Proteins were then transferred onto a nitrocellulose membrane and probed with rabbit BCL6 antibody (Abcam, Cambridge, UK; ab33901) and mouse GAPDH antibody (Abcam; ab9484) at 1:2000 dilution overnight at 4°C. Blots were probed for 1 hour at room temperature with secondary antibodies (goat anti-rabbit LI-COR, 926-32211 and goat anti-mouse LI-COR, 926-68070) at 1:10,000 dilution). Images were obtained on a LI-COR Odyssey CLx Infrared Imaging System using Image Studio software (Version 5.2).

[3] = system: BCL6 target genes in Farage cells; assay: Semiquantitative real-time PCR of ten BCL6 target genes; details: 72-h treatment
Description: Farage cells were plated at a density of 3000 cells/100 µl in 96-well plates, incubated overnight at 37 °C then treated with a 10-point, 1:3-fold serial dilution of compound at a top concentration of 20 µM for GSK137 or 10 µM BI3802. Cells were returned to the incubator for 3 days prior to harvesting for RNA isolation. RNA was isolated using the TurboCapture 96 Kit (Qiagen, Hilden, Germany; # 72251), cDNA generated using the High Capacity cDNA Reverse Transcription kit (ABI, Foster City, CA, USA; #4374966) both following the manufacturer’s instructions. qPCR was performed on a ViiA7 real-time PCR machine (Life Technologies, Carlsbad, CA, USA) using the Fast TaqMan ΔΔCt method. Quadruplicate readings were measured for each biological replicate sample. Individual TaqMan assays are listed (Table S4). Expression data were analyzed using the Comparative Ct^(2–ΔΔ^Ct) method (42) The Ct values of the treated samples are compared to vehicle treated samples and normalized to GAPDH. Changes are presented as an average RQ (termed “relative expression”). RQ values between 0 and 1 correspond to a downregulation of gene expression, RQ values greater than 1 correspond to upregulation.

[4] = target: T2, full-length human BCL6 binding to BCL6-binding domain of SMRT (residues 1292-1500) (Homo sapiens, UniProt P41182); assay: NanoBRET cell assay in HEK293-WT cells
T2 construct: Nano Luciferase fused at the N-terminus of full-length human BCL6; host or cells: HEK293-WT (ATCC CRL-1573)
From the text: Plasmids encoding Nano Luciferase fused at the N-terminus of full-length human BCL6 and encoding Halo tag fused at the C-terminus of the BCL6 binding domain (1292-1500) of human SMRT co-repressor were generated under contract by Promega Corporation. HEK293-WT cells were from ATCC (CRL-1573). Fugene HD transfection reagent (catalogue number E2311), HaloTag NanoBRET 618 ligand (catalogue number G980B) and NanoBRET Nano-Glo substrate (catalogue number N157B) were from Promega Ltd.
Assay day 1 (Transient Transfection): 8 x 10^6 HEK293-WT cells per T75 flask (one per compound plate), were transfected with mix comprising 10 µg BCL6 DNA, 10 µg domain SMRT DNA, 1 mL Opti-MEM and 60 µL FuGene (added last), incubating at room temperature for 10 mins prior to addition to flask. The flask was incubated for 20-24 hours at 37 °C and 5% CO2. Assay day 2 (Cell plating): Cells were detached, spun and re-suspended at 2 x 10^5 cells/mL, HaloTag NanoBRET 618 ligand at 1:1000 dilution was added and plated at 40 µL / well with test compounds prepared as above, a duplicate plate without HaloTag ligand was used as background control. The plates were incubated at 37 °C and 5% CO2 overnight (18-24 hours). Assay day 3 (Assay): 1:1000 NanoGlo substrate final was added to all wells, shaken for 30 seconds and luminescence then read on an Envision plate reader. […]

Row | Structure (SMILES) | cumulative cell number [1] | degradation of intracellular BCL6 protein [2] | expression changes in a panel of 10 BCL6 target genes [3] | activity in cellular assay compared with reported potency ([4]; cellular) | cell viability ([1]; GSK137 0.1-10 μM) | IC50 ([4]; live cells, full-length human BCL6 / SMRT BBD, read-out: pIC50 Human NanoBret cell (converted)) [nM]
1 | CNC(=O)COc1cc2cc(Nc3nc(N4C[C@H](C)C[C@H](C)C4)ncc3Cl)ccc2n(C)c1=O [BI3802, reference compound] | showed some response | degraded BCL6 | dose-dependent changes to six of the ten genes | consistent with the previously reported potency |  | 
2 | Cc1ncccc1[C@H]1C[C@@H](c2cccc3nc(N)ccc23)Nc2c(F)cnn21 [GSK137, 5-((5S,7R)-3-Fluoro-7-(2-methylpyridin-3-yl)-4,5,6,7-tetrahydropyrazolo[1,5-a]pyrimidin-5-yl)quinolin-2-amine] | no detectable change | did not show this activity | clear increase only in SOCS2 with some increase in CD69 |  | no major change in cell viability; also recorded: no detectable change | 50.1
